Experimental data: patent US20240261224A1, “FORMULATION OF A PAN-JAK INHIBITOR” (KINASET THERAPEUTICS, INC., priority 2022, published 2024)

Tests used:
rat = test: 13-week inhalation toxicology study, rat model; format: in vivo; settings: for AUC0-24: rat, in vivo, inhaled or intranasal
Experimental: (§1) Lactose/MgSt-based formulations of Compound I were evaluated during a 13-week inhalation toxicology study using a rat model.
(§2) The NOAEL was assigned to the highest dose study (11.9 mg/kg/day).

[1] = 13-week inhalation toxicology study, rat model; format: in vivo; settings: in vivo, inhaled or intranasal, rat; for AUC(0-t): AUC0-24
Experimental: as §1, §2

TYK2 = TYK2 (Homo sapiens, UniProt P29597); settings: cited from earlier work
Chain of TYK2 (P29597 whole entry): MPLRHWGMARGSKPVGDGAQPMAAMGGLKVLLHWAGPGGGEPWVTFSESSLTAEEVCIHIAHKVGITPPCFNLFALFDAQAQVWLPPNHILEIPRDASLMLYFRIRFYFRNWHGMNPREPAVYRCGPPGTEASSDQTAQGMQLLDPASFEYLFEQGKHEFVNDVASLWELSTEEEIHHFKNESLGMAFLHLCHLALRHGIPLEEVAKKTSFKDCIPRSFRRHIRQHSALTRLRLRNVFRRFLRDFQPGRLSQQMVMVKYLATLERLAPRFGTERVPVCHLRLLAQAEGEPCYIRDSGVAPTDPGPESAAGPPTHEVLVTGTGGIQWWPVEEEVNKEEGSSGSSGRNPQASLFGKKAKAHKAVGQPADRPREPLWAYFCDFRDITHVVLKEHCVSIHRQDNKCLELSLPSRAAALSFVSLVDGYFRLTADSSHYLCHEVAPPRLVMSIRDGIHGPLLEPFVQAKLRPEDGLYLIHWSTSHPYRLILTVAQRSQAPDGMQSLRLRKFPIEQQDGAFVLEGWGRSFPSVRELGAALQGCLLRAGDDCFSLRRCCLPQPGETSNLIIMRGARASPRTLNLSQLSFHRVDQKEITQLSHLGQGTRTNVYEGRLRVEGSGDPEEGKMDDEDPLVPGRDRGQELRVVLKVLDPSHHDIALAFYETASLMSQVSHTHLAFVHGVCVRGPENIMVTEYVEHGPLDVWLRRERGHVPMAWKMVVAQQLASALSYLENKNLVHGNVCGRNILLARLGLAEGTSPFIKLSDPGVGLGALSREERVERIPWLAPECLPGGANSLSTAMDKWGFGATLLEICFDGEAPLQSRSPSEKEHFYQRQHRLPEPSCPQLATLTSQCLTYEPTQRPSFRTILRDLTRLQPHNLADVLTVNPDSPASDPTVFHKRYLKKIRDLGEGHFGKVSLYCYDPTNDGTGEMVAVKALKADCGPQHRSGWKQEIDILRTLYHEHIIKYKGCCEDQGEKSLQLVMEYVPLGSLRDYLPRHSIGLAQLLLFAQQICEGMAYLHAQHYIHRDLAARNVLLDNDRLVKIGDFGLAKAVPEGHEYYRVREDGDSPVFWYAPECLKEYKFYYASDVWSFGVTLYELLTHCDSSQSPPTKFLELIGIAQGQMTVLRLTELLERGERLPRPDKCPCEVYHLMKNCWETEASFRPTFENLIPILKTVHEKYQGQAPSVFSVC

[2] = Margin of safety study versus 13-wk NHP NOAEL; format: in vivo
Text: Results from the margin of safety study of lactose/MgSt-based formulations of Compound I are shown below in Table 17.

JAK3 = molecular target: T1, JAK3 (Homo sapiens, UniProt P52333); settings: cited from earlier work
T1 sequence (P52333 1-1124): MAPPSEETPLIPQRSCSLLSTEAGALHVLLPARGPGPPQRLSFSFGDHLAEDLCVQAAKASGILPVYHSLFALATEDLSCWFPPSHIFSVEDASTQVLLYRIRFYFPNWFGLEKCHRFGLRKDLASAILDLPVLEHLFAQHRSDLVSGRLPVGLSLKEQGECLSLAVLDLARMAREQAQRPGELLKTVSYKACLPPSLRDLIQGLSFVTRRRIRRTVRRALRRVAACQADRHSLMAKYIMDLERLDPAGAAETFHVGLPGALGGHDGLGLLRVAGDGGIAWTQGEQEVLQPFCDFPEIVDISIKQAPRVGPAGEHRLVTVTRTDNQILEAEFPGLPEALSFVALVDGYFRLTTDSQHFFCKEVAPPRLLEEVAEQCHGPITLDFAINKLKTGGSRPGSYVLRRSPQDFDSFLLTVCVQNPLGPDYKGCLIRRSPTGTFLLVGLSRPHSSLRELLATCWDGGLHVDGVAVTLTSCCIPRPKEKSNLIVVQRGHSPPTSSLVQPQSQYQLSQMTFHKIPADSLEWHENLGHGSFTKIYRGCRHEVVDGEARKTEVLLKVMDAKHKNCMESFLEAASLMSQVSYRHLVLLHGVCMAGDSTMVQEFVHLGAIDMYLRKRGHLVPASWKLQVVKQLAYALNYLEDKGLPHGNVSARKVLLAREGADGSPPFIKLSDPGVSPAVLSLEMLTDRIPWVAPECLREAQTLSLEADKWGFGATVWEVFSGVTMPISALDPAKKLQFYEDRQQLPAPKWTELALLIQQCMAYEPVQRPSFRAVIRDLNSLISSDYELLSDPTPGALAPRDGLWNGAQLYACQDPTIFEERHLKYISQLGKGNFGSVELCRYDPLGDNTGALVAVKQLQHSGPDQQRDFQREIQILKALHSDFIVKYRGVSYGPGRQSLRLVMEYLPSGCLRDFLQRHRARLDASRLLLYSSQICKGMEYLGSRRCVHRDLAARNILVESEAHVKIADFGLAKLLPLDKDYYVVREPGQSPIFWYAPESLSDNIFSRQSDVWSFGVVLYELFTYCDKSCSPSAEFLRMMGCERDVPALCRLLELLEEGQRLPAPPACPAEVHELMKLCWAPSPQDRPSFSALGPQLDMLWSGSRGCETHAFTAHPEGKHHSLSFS

JAK2 = JAK2 (Homo sapiens, UniProt O60674); settings: cited from earlier work
Chain of JAK2 (O60674 whole entry): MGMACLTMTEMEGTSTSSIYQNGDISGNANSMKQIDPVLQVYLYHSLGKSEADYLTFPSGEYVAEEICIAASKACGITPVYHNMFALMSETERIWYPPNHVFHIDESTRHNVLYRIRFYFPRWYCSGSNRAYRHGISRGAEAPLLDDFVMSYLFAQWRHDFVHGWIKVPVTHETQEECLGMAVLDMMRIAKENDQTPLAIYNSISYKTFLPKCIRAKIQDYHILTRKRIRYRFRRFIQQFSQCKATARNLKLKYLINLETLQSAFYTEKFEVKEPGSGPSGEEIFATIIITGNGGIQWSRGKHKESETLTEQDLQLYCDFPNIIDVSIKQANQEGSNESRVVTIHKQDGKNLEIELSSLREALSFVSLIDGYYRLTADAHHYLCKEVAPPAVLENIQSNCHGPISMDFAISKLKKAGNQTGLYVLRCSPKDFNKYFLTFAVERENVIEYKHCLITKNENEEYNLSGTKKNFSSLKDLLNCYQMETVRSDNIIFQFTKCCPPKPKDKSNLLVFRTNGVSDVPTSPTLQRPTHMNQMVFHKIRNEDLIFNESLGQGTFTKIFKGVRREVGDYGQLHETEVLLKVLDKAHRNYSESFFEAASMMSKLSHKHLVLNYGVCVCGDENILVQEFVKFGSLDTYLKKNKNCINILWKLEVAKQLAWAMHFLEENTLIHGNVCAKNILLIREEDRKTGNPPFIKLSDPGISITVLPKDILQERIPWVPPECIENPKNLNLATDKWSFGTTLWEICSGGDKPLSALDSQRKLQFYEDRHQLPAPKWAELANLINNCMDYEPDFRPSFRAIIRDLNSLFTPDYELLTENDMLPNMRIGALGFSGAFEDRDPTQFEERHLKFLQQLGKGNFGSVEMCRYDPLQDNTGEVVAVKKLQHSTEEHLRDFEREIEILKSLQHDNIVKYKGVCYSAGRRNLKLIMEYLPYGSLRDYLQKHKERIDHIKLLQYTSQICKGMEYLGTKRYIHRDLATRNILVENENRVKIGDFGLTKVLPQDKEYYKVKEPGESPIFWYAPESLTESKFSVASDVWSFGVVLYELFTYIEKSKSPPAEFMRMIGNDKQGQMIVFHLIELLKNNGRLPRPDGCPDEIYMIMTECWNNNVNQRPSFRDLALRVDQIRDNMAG

[3] = 4.0 mg BID vs 13-week NHP study

Cn1c(=O)n([C@H]2CCCN(C(=O)CC#N)C2)c2nc(-c3cnn4ccccc34)ccc21 [Compound I, (S)-3-(3-(1-methyl-2-oxo-5-(pyrazolo[1,5-a]pyridine-3-yl)-1H-imidazo[4,5-b]pyridine-3(2H)-yl)piperidin-1-yl)-3-oxopropanenitrile] gave an AUC0-24 (rat; 1.3 mg/kg/day) of 197 ng·h/mL, an AUC0-24 (rat; 4 mg/kg/day) of 738 ng·h/mL and an AUC0-24 (rat; 12 mg/kg/day) of 1950 ng·h/mL. The MMAD (rat; target delivered dose 1.3 mg/kg/day (low dose)) was 1.9 μm, the MMAD (rat; target delivered dose 4.0 mg/kg/day (mid dose)) was 2.0 μm and the MMAD (rat; target delivered dose 12.0 mg/kg/day (high dose)) was 2.1 μm. It also gave an NOAEL at 13 weeks ([1]; 13-week inhalation, highest dose) of 11.9 mg/kg/day, an AUC(0-t) ([1]; 1.3 mg/kg/day) of 339 ng·h/mL and an AUC(0-t) ([1]; 4 mg/kg/day) of 850 ng·h/mL. For the same compound, the AUC(0-t) ([1]; 12 mg/kg/day) was 2060 ng·h/mL, the “Inhibition of TYK2” value (TYK2) was “potent inhibitor” and the “MoS versus inhalation toxicology study NOAELs, Lung exposure (mg/g lung)” value [2, 3] was 50. The “MoS versus inhalation toxicology study NOAELs, Plasma (group mean AUC0-24)” value [2, 3] was 3.2, the “Group mean AUC0-24 MoS (Phase 1 clinical study versus inhalation tox study NOAELs)” value ([2]; 4.0 mg BID vs 13-wk NHP NOAEL) was 3.2 and the “Lung dose of Compound I (mg/g) MoS” value ([2]; 4.0 mg BID vs 13-wk NHP NOAEL, adjusted for respirability assuming 10%, 25% and 100% lung deposition in rat, NHP and human) was 50. The “Inhibition of JAK3” value (JAK3) was “potent inhibitor” and the “Inhibition of JAK2” value (JAK2) was “potent inhibitor”.
